Patent US9504700B2, “Methods and compositions for stimulation and enhancement of regeneration of tissues” (MOUNT DESERT ISLAND BIOLOGICAL LABORATORY, priority 2012, dated 2016)

How the values were obtained:
[1] = test system: caudal fin of adult zebrafish; assay: Caudal fin regeneration after amputation in adult zebrafish; format: in vivo
Description: The purpose of this example was to evaluate the pharmacological effect of aminosterol MSI-1436 administration on the regeneration of the caudal or tail fins of zebrafish. Wildtype adult zebrafish were treated with MSI-1436 or squalamine or a control of phosphate buffered saline solution (PBS) over a four-day period via daily intraperitoneal microinjections. The adult zebrafish were bred and housed in the Yin laboratory at Mount Desert Island Biological Laboratory. The microinjections of PBS, squalamine and MSI-1436 were performed for the duration of the experiments at concentrations of 0.125 mg/kg which corresponds to 50 ng/300 mg body weight which translates to 5-200 mg per dose in humans. On average, a 5 ul volume of 10 ug/ml solution was delivered into each animal with a custom made 10 ul glass syringe (Hamilton part #80008).
The tail or caudal fins were amputated following the second day of intraperitoneal microinjections. These amputations were accomplished using a razor blade to remove approximately 50% of the caudal fins each in a manner perpendicular to the direction of bony ray growth. The zebrafish were maintained at standard conditions of 28° C. at all times during the experiments. At 4 days post-amputation (4 dpa) through 14 dpa, caudal fins were imaged with an Olympus MVX10 stereomicroscope and the length of regenerated tissue from the amputation plane was quantified using Adobe Photoshop.
(The dashed lines correspond to the amputation planes; the scale bar is 1 mm; * corresponds to the Student's ttest p-value <0.01; error bars correspond to SEM; n corresponds to 8-10 fish per group.) MSI-1436 stimulated appendage regeneration 2-fold four days after amputation (4 dpa), as shown in FIG. 2. […] In other words, the rate of regeneration was […] for those animals receiving MSI-1436 than for those receiving either phosphate buffered saline (PBS) or squalamine. Each of the experiments was conducted with at least 6 animals per group. […] FIG. 1 reflects the results of all four experiments.
Wildtype adult zebrafish were subjected to caudal fin amputation and treated daily with either control PBS or MSI-1436 as described above in the context of FIG. 1 for 14 consecutive days during regeneration. (Arrowhead=amputation plane; n=4-6 per group).

[2] = test system: caudal fin blastema cells; assay: Proliferation of caudal fin blastema cells (H3P staining); format: in vivo, zebrafish; details: 4 dpa, vs control
From the text: The zebrafish caudal fins from the control and MSI-1436 treated animals were extracted at four days post-amputation (4 dpa) and stained with an antibody directed against phosphorylated histone 3 (H3P) as a marker of cell proliferation. […] (Arrowheads highlight subset of H3P positive cells; * corresponds to Student's ttest p-value <0.001; error bars correspond to SEM; n corresponds to 6 fish per group).

zebrafish adult hearts [3] = assay: Heart regeneration after partial ventricular resection (cardiomyocyte proliferation index, Mef2+PCNA+); format: in vivo; details: 3 dpa; 0.125 mg/kg daily ip
Description: The pharmacological effect of aminosterol MSI-1436 administration on the regeneration of zebrafish adult hearts was tested using the same experimental paradigm described under the first study of example 1.
Adult zebrafish of 6-8 months old, were subjected to partial ventricular resection procedures followed by daily treatments with intraperitoneal microinjections of PBS (control) or squalamine or MSI-1436 at concentrations of 0.125 mg/kg. The ventricular resection procedures removed ˜20% of the ventricular apex of each heart and challenged each animal to regenerate new heart tissue. At three days post-amputation (3 dpa), hearts were extracted, fixed, cyrosectioned and stained with antibodies directed against Mef2 and PCNA. Cardiomyocyte proliferation indices were determined for each group by representing Mef2+PCNA+cells as a percent of total Mef2+cells within each heart. (*=Student's ttest p-value <0.05; error bars=SEM; n=4 per group).

zebrafish adult hearts [4] = assay: Rescue of let-7 miRNA depletion defect in heart regeneration (cardiomyocyte proliferation index); format: in vivo; details: 3 dpa
From the text: To determine if MSI-1436 is capable of rescuing defects in heart regeneration, we microinjected antisense oligonucleotides to bind and remove activity of the let-7 family of small RNAs (miRNAs). Wildtype adult zebrafish were injured via the partial ventricular resection procedure described above and treated with either 1) control of PBS, 2) MSI-1436, 3) miRNA depletion, and 4) miRNA depletion and MSI-1436. At three days post-amputation (3 dpa), hearts were extracted and stained to detect Mef2+PCNA+cells. Cardiomyocyte proliferation indices were determined as a percent of Mef2+PCNA+cells within the total cardiomyocyte population in each heart. (*=Student's ttest p-value <0.05; error bars=SEM; n=8-12 hearts per group) The inclusion of MSI-1436 enhanced cardiomyocyte proliferation indices by 2-fold when compared to control hearts. Depletion of the let-7 family of miRNAs with antisense nucleotides inhibited cardiomyocyte proliferation index by approximately 45%.

[5] = test system: Normal, green monkey kidney cells; assay: Cellular proliferation of normal green monkey kidney cells; format: cell-based; details: 0.1 μg/ml or 1.0 μg/ml, two weeks
Description: This study was conducted to determine the effects of MSI-1436 on the cellular proliferation of normal, uninjured mammalian cells.
Normal, green monkey kidney cells were cultured with either control media of PBS or supplemented with 0.1 μg/ml or 1.0 μg/ml of MSI-1436. Growth media with and without MSI-1436 were replaced daily and total cell numbers were determined for each group over a period of 2-weeks.

PTP1B = target: T1, PTP1B (Homo sapiens, UniProt P18031); details: in vitro enzyme assay; cited from earlier work
T1 sequence (P18031 1-435): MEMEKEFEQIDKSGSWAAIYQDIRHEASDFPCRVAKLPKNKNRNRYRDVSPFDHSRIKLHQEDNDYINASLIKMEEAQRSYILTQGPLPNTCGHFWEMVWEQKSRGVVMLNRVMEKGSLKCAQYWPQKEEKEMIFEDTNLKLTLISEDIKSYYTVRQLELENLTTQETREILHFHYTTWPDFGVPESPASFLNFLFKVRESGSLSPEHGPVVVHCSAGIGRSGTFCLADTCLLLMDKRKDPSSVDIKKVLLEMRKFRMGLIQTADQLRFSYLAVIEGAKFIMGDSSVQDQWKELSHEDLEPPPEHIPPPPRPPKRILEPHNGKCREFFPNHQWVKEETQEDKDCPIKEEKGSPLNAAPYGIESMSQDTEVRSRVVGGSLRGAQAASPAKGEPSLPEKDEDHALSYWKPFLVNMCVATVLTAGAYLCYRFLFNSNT

hepatoma cells = details: cited from earlier work
insulin receptor = details: mouse, with administration of insulin; cited from earlier work
HIV = details: tissue culture; cited from earlier work

Question: With `CC(C)[C@@H](CC[C@@H](C)[C@H]1CC[C@H]2[C@@H]3[C@H](O)C[C@H]4C[C@@H](NCCCNCCCCNCCCN)CC[C@]4(C)[C@H]3CC[C@]12C)OS(=O)(=O)O` [MSI-1436] as the compound, how does the “anatomy of restored tail” value ([1]; 0.125 mg/kg daily ip) read?
Answer: anatomically normal

Question: What about the “rate of regeneration greater than PBS or squalamine” value ([1]; 0.125 mg/kg daily ip) of the same compound?
Answer: 200%

Question: And the “overgrowth of regenerated tissue” value ([1]; 14 consecutive days of daily microinjections)?
Answer: did not display any overgrowth

Question: What about the “amount of regenerated tissue vs control” value ([1]; 14 days post-amputation (14 dpa)) of the same compound?
Answer: same amount of regenerated tissue

Question: And the “stimulation of appendage regeneration” value ([1]; four days after amputation (4 dpa), 0.125 mg/kg daily ip)?
Answer: 2 fold

Question: And the “increase in cellular proliferation of blastema cells (H3P positive)” value [2]?
Answer: 2 fold

Question: And the “greater rate of heart regeneration, as quantified by cardiomyocyte proliferation indices, vs PBS or squalamine” value (zebrafish adult hearts [3])?
Answer: 2-3 fold

Question: And the “enhancement of cardiomyocyte proliferation indices vs control hearts” value (zebrafish adult hearts [4])?
Answer: 2 fold

Question: What about the “cardiomyocyte proliferation index in animals with miRNA depletion” value (zebrafish adult hearts [4]; miRNA depletion and MSI-1436) of the same compound?
Answer: restored to wildtype control levels

Question: And the cellular proliferation plots ([5]; media replaced daily)?
Answer: normal growth curves

Question: And the overgrowth or hyperproliferation [5]?
Answer: did not promote overgrowth or hyperproliferation

Question: And the PTP1B activity (PTP1B)?
Answer: inhibit the activity of PTP1B

Question: And the “phosphorylation of the insulin receptor” value (hepatoma cells)?
Answer: increase the level of phosphorylation of the insulin receptor

Question: And the “recovery of phosphorylated insulin receptor from the hypothalamus” value (insulin receptor)?
Answer: increase in the recovery of phosphorylated insulin receptor from the hypothalamus

Question: And the “antiviral activity against HIV” value (HIV)?
Answer: exhibits antiviral activity against HIV
